Assay results taken from patent US7262210B2, “Fluorinated pyridine N-oxide thrombin modulators and process for N-oxidation of nitrogen containing heteroaryls” (Janssen Pharmaceutica N.V., priority 2005, dated 2007).
Structures can show the parent of a compound that is named as a salt.

Molecular target: T1, Human α-thrombin (Homo sapiens, UniProt P00734)
T1 construct: Human α-thrombin (Enzyme Research Laboratories HT1002a); purchased Enzyme Research Laboratories (South Bend, Ind.) HT1002a
Assay: In vitro inhibition of purified enzyme; kinetic analysis by chromogenic substrates
Type: biochemical
Details: substrate SucAAPR pNA 100 uM, Km=320 μM, Ki factor=0.76; 37° C., pH 7.5, 4% DMSO; thrombin 1.1 nM; Ki=IC50×Ki factor
Experimental: In Vitro Inhibition of Purified Enzyme
Reagents: All buffer salts were obtained from Sigma Chemical Company (St. Louis, Mo.), and were of the highest purity available.
Human α-thrombin, was obtained from Enzyme Research Laboratories (South Bend, Ind.).
Kinetic Analysis by Chromogenic Substrates
Compounds were assessed for their inhibitory activity toward Thrombin by kinetic analysis using para-nitroaniline chromogenic substrates monitored at 405 nm. The assay buffer employed was 50 mM HEPES, pH 7.5, 200 mM NaCl, and fresh 0.05% n-octyl β-d-glucopyranoside. DMSO was present at a final concentration of 4%, derived from the substrate and inhibitory compound stock solutions. […] Reactions were initiated by addition of 10 μL protease, and increase in absorbance due to proteolytic cleavage of substrate was kinetically monitored at 37° C., 405 nm with a Molecular Devices Spectramax 340 platereader. Initial velocities were determined by analysis of the initial linear portion of the reactions. Plots of vo/vi vs. inhibitor concentration, where vo=velocity without inhibitor, and vi=inhibited velocity, were fit to a linear regression line, and the IC50 was determined from the reciprocal of the slope. […]

N#Cc1cc(F)c(NCC(F)(F)c2ccccn2)[n+]([O-])c1CC(=O)NCc1ncccc1F [Example 1, 2-[3-Cyano-6-(2,2-difluoro-2-pyridin-2-yl-ethylamino)-5-fluoro-1-oxy-pyridin-2-yl]-N-(3-fluoro-pyridin-2-ylmethyl)-acetamide dihydrochloride]
Ki: 9.8 to 11 nM
